Each block holds one molecule with its values, some of them ahead of it.
Legend:
HeLa = test: MTT cytotoxicity assay, HeLa; conditions: Homo sapiens, 24 h, read-out: In Vitro Cytotoxicity IC50 HeLa
Procedure: (§4) Sunitinib, a well-known multi-kinase inhibitor, was used as a reference compound.
(§5) After incubation for 48 h, the cells were treated with different concentrations of the synthesized hybrid compounds for 24 h. After the addition of 20 μL MTT (5 mg/mL), the plates were incubated for 4 h and then 100 μL Dimethyl sulfoxide (DMSO) was added to each well to dissolve the insoluble purple formazan formed. […] The relative cell viability percentage was calculated as (A570 of treated samples/A570 of untreated sample) × 100.

MDA-MB-231 = test: MTT cytotoxicity assay, MDA-MB-231; conditions: Homo sapiens, MDA-MB-231, 24 h, read-out: In Vitro Cytotoxicity IC50 MDA-MB-231
Procedure: as §4, §5

HepG2 = test: MTT cytotoxicity assay, HepG2; conditions: Homo sapiens, HepG2, 24 h, read-out: In Vitro Cytotoxicity IC50 HepG2
Procedure: as §4, §5

MCF-7 = test: MTT cytotoxicity assay, MCF-7; conditions: Homo sapiens, MCF7, 24 h, read-out: In Vitro Cytotoxicity IC50 MCF-7
Procedure: as §4, §5

[1] = system: HepG2, MCF-7, MDA-MB-231 and HeLa cell lines; test: MTT cytotoxicity assay, summary over all four cell lines; conditions: Homo sapiens, read-out: IC50 against all tested cell lines
Procedure: as §4, §5

Bcl-2 = Bcl-2 protein level ELISA in HepG2 cells; type: cell-based, human; conditions: HepG2, 9.61 μM, 24 h
Procedure: (§1) In these assays, compound 15 was used at its cytotoxic concentration (9.61 μM) and incubated with HepG2 cells for 24 h.
(§2) HepG2 cells were seeded in 96-well plates in triplicate and incubated for 24 h. The incubated cells were then treated with compound 15 at different concentrations. Cells treated with 0.1% DMSO (V/V) served as control. After 24 h incubation, caspase 3 and 9, BAX and Bcl-2 levels were determined using ELISA assay kits KHO1091 (Invitrogen^TM, Grand Island, NY, USA), EIA-4860 (DRU International INC., Mountainside, NJ, USA), EIA-4487 (DRU International INC., Mountainside, NJ, USA) and 99-0042 (Invitrogen^TM, Grand Island, NY, USA), respectively, according to the manufacturers’ procedures.

Caspase 3 = Caspase 3 protein level ELISA in HepG2 cells; type: cell-based, human; conditions: HepG2, 9.61 μM, 24 h
Procedure: as §1, §2

CDK2 = molecular target: T1, CDK2 (Homo sapiens, UniProt P24941); test: In vitro CDK2 enzyme assay (ELISA kit); type: biochemical
T1 construct: purchased
Procedure: (§3) A human ELISA kit (Enzyme-Linked Immunosorbent Assay) for each of the above-mentioned protein kinase enzymes was used in this assay. […] The mixture was then incubated at room temperature for 2.5 h, after which the wells were washed and 100 μL of the prepared biotin antibody was added and incubated for 1 h at room temperature. After another washing step, 100 μL of streptavidin solution was added and incubated for 45 min at room temperature. The wells were then washed for a third time and 100 μL of TMB Substrate reagent was added and incubated for 30 min at room temperature. Finally, 50 μL of the stop solution was added, and the absorbance was read immediately at 450 nm. A standard curve was plotted showing concentration on the X-axis and absorbance on the Y-axis.

HepG2 cells [2] = test: Annexin V/propidium iodide apoptosis flow cytometry; type: cell-based, human; conditions: HepG2, 9.61 μM, 24 h
Procedure: On the other hand, an Annexin V/propidium iodide (PI) double staining assay was conducted to identify the mode of cell death promoted by compound 15 (9.61 μM) following 24 h incubation with HepG2 cells.
Flow cytometry cell apoptosis analysis was conducted to examine the apoptotic effect of the synthesized compounds using the Annexin V-FITC cell apoptosis detection kit (Biovision, K101-100). First, HepG2 cells in a density of 2 × 10^5 were seeded in 6-well plates and incubated for 24 h. The cells were then treated with 9.61 µM compound 15 for 24 h. The treated cells were then detached with trypsin (5 min, 37 °C), collected by centrifugation (5 min, 300× g), washed twice with PBS, and resuspended in 0.1 mL of a 1X binding buffer. After that, the cells were double-stained with 5 μL Annexin V-FITC and 5 μL PI in the dark at room temperature for 15 min. The stained cells were evaluated using an Epics XL-MCL™ Flow Cytometer (Beckman Coulter, Apeldoorn, Netherlands) with an excitation wavelength of 488 nm and an emission wavelength of 530 nm, and the data were interpreted using the Flowing software (version 2.5.1, Turku Centre for Biotechnology, Turku, Finland).

HepG2 cells [3] = test: Flow cytometry cell cycle analysis (propidium iodide); type: cell-based, human; conditions: HepG2, 9.61 μM, 24 h
Procedure: In addition, the cell cycle progression assay as described by Wang et al. was used to investigate the effect of compound 15 in HepG2 cells. The biological effect of compound 15 was measured by treating HepG2 cells with 9.61 μM of the compound for 24 h. The compound’s effect on cell cycle distribution was analyzed by comparing with untreated control cells (Table 3, Figure 6).
Flow cytometry analysis was carried out using an ab139418 Propidium Iodide flow cytometry kit/BD to detect the effect of the synthesized compound 15 on cell cycle distribution. First, HepG2 cell were seeded in 6-well plates at a density of 2 × 10^5/well and incubated for 24 h. HepG2 cells were then treated with 9.61 µM of compound 15 for 24 h. The treated cells were then fixed in 70% ethanol for 12 h at 4 °C, rinsed with cold PBS, incubated with 100 μL RNase A for 0.5 h at 37 °C, and stained with Propidium Iodide (400 μL) in the dark at RT for an extra 0.5 h. The stained cells were determined utilizing Epics XLMCL™ flow cytometer equipment (Beckman Coulter, Apeldoorn, Netherlands), and the results were collected and analyzed using Flowing software (version 2.5.1, Turku Centre for Biotechnology, Turku, Finland).

Caspase 9 = Caspase 9 protein level ELISA in HepG2 cells; type: cell-based, human; conditions: HepG2, 9.61 μM, 24 h
Procedure: as §1, §2

Her2 = molecular target: T2, Her2 (Homo sapiens, UniProt P04626); test: In vitro Her2 enzyme assay (ELISA kit); type: biochemical
T2 construct: purchased
T2 sequence (P04626 23-1255): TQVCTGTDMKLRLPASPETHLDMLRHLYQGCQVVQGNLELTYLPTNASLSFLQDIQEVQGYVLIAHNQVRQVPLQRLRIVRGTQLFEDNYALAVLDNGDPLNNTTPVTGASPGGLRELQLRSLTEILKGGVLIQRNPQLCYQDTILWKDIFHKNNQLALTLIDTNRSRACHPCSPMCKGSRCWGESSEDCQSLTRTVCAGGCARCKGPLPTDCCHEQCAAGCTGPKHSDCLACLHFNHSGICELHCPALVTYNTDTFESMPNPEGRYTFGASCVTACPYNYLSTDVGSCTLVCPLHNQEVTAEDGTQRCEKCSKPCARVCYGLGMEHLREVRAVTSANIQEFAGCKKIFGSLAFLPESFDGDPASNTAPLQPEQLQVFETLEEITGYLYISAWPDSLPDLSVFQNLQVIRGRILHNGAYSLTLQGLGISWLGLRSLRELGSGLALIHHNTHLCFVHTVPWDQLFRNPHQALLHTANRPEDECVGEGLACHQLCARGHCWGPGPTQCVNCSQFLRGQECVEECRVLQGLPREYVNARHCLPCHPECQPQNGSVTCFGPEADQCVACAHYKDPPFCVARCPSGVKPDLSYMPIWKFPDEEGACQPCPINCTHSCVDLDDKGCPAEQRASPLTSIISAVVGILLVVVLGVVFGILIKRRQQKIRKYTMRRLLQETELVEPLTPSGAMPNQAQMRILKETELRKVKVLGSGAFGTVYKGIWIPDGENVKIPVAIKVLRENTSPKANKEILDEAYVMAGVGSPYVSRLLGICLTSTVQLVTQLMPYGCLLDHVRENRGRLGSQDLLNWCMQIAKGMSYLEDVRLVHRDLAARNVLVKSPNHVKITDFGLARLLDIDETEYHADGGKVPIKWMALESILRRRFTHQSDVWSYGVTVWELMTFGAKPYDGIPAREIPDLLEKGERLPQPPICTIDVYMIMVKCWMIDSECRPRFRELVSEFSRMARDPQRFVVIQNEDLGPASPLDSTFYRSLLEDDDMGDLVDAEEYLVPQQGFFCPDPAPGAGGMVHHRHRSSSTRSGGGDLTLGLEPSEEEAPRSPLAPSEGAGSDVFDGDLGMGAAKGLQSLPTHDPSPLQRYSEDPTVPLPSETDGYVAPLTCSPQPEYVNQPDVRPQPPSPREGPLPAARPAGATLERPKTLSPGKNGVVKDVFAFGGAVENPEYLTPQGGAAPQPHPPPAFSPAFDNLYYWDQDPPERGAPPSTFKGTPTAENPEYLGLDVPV
Procedure: as §3

BAX = BAX protein level ELISA in HepG2 cells; type: cell-based, human; conditions: HepG2, 9.61 μM, 24 h
Procedure: as §1, §2

EGFR = molecular target: T3, EGFR (Homo sapiens, UniProt P00533); test: In vitro EGFR enzyme assay (ELISA kit); type: biochemical
T3 construct: purchased
T3 sequence (P00533 25-1210): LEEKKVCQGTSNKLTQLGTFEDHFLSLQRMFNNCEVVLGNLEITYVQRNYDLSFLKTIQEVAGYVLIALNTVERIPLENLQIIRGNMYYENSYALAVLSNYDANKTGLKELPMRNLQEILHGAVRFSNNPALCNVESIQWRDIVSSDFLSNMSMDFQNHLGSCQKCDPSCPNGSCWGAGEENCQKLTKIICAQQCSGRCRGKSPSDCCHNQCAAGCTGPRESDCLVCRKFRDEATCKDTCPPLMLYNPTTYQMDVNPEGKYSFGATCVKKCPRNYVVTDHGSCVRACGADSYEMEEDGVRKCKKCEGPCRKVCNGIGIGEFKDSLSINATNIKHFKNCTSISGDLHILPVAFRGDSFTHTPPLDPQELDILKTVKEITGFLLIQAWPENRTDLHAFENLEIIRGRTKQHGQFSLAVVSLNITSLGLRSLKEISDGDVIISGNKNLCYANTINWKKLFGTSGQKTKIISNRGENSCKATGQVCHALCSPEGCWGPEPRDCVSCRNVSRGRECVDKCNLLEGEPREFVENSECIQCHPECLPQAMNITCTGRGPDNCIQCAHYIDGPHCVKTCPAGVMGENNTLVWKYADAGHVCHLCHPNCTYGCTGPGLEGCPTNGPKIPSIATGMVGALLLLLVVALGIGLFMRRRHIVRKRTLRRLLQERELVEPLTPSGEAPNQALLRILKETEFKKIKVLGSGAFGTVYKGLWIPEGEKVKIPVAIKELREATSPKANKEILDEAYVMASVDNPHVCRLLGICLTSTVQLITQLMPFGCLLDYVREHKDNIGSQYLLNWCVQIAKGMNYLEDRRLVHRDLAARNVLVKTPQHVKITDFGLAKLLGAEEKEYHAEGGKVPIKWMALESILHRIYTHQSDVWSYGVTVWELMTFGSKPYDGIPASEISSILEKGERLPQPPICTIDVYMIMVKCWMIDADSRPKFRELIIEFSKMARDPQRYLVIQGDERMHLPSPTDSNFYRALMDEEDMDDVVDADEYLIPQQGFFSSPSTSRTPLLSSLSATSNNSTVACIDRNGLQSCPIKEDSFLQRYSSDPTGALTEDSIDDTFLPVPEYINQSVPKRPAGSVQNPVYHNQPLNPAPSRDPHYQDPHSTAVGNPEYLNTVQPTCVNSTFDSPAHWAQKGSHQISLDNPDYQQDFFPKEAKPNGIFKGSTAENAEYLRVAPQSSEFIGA
Procedure: as §3

VEGFR2 = molecular target: T4, VEGFR2 (Homo sapiens, UniProt P35968); test: In vitro VEGFR-2 enzyme assay (ELISA kit); type: biochemical
T4 construct: purchased
T4 sequence (P35968 20-1356): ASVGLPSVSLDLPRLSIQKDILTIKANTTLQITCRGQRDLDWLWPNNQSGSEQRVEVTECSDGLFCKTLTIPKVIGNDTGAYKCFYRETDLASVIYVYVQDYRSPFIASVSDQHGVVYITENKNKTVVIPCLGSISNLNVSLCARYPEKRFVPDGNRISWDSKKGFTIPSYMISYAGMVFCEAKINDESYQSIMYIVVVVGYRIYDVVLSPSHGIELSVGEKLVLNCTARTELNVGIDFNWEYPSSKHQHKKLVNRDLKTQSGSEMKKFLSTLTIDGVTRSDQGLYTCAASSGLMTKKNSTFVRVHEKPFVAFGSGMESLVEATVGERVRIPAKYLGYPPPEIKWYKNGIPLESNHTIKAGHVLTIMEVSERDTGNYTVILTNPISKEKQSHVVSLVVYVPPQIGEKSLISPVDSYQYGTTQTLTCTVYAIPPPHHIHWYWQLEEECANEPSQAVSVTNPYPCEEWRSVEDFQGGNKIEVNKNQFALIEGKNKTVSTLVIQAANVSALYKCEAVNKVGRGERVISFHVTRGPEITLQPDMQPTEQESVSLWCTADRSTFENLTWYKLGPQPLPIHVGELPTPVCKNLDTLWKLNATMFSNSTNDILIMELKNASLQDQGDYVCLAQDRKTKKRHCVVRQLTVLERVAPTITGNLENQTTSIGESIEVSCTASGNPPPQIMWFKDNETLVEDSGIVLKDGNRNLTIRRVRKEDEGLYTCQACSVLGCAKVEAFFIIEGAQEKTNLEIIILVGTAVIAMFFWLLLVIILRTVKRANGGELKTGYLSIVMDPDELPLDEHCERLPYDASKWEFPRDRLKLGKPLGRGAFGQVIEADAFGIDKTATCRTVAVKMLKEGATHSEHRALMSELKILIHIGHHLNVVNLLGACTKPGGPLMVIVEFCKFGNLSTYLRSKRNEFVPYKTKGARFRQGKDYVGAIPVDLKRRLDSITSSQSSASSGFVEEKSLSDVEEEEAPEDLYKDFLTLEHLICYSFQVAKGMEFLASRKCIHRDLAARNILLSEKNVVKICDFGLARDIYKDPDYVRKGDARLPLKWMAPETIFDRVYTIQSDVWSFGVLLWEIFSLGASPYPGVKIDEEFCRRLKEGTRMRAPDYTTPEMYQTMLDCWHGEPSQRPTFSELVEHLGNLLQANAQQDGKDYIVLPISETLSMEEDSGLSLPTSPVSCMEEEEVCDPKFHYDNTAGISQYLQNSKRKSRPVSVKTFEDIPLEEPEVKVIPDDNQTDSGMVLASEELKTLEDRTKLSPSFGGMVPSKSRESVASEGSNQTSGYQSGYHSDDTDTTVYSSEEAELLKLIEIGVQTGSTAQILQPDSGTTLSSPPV
Procedure: as §3

SMILES: O=C1Nc2ccccc2C1=NNC(=O)c1ccc(Nc2ncnc3[nH]cnc23)cc1 [Compound 4, 4-((9H-purin-6-yl)amino)-N’-(2-oxoindolin-3-ylidene)benzohydrazide]
IC50 (HeLa): 62.4 ± 3.4 µM | IC50 (MDA-MB-231): 59.7 ± 2.9 µM | melting point: > 300 °C | IC50 (HepG2): 54.6 ± 3.1 µM | IC50 (MCF-7): 47.3 ± 3 µM

SMILES: O=C1Nc2ccc(Cl)cc2C1=NNC(=O)c1ccc(Nc2ncnc3[nH]cnc23)cc1 [Compound 5, 4-((9H-purin-6-yl)amino)-N’-(5-chloro-2-oxoindolin-3-ylidene)benzohydrazide]
IC50 (HeLa): > 100 µM | IC50 (MDA-MB-231): 82.1 ± 3.8 µM | melting point: > 300 °C | IC50 (HepG2): 88.1 ± 4 µM | IC50 (MCF-7): > 100 µM

SMILES: O=C1Nc2ccc(F)cc2C1=NNC(=O)c1ccc(Nc2ncnc3[nH]cnc23)cc1 [Compound 6, 4-((9H-purin-6-yl)amino)-N’-(5-fluoro-2-oxoindolin-3-ylidene)benzohydrazide]
IC50 (HeLa): 30.7 ± 2.3 µM | IC50 [1]: 18.1 to 53.5 µM | IC50 (MDA-MB-231): 19.1 ± 1.4 µM | melting point: > 300 °C | IC50 (HepG2): 42.4 ± 2.7 µM | IC50 (MCF-7): 22.3 ± 1.8 µM

SMILES: Cc1ccc2c(c1)C(=NNC(=O)c1ccc(Nc3ncnc4[nH]cnc34)cc1)C(=O)N2 [Compound 7, 4-((9H-purin-6-yl)amino)-N’-(5-methyl-2-oxoindolin-3-ylidene)benzohydrazide]
IC50 (HeLa): > 100 µM | IC50 (MDA-MB-231): 91.6 ± 4.5 µM | melting point: > 300 °C | IC50 (HepG2): 60.4 ± 3.2 µM | IC50 (MCF-7): 76.4 ± 3.7 µM

SMILES: COc1ccc2c(c1)C(=NNC(=O)c1ccc(Nc3ncnc4[nH]cnc34)cc1)C(=O)N2 [Compound 8, 4-((9H-purin-6-yl)amino)-N’-(5-methoxy-2-oxoindolin-3-ylidene)benzohydrazide]
IC50 (HeLa): 53.5 ± 3.2 µM | IC50 [1]: 18.1 to 53.5 µM | IC50 (MDA-MB-231): 29.8 ± 2 µM | melting point: > 300 °C | IC50 (HepG2): 48.1 ± 2.9 µM | IC50 (MCF-7): 40.6 ± 2.7 µM

SMILES: O=C1Nc2ccc([N+](=O)[O-])cc2C1=NNC(=O)c1ccc(Nc2ncnc3[nH]cnc23)cc1 [Compound 9, 4-((9H-purin-6-yl)amino)-N’-(5-nitro-2-oxoindolin-3-ylidene)benzohydrazide]
IC50 (HeLa): 84.6 ± 4.1 µM | IC50 (MDA-MB-231): 72.2 ± 3.4 µM | melting point: > 300 °C | IC50 (HepG2): 75.6 ± 3.5 µM | IC50 (MCF-7): 65 ± 3.4 µM

SMILES: CCN(CC)CCNC(=O)c1c(C)[nH]c(/C=C2\C(=O)Nc3ccc(F)cc32)c1C [Sunitinib, reference compound]
IC50 (HeLa): 7.48 ± 0.6 µM | IC50 (MDA-MB-231): 8.41 ± 0.7 µM | IC50 (HepG2): 6.82 ± 0.5 µM | IC50 (MCF-7): 5.19 ± 0.4 µM

Second part, led by results:

melting point: > 300 °C
SMILES: O=C1Nc2ccccc2/C1=N\Nc1ncnc2[nH]cnc12 [Compound 11, (E)-3-(2-(9H-purin-6-yl)hydrazineylidene)indolin-2-one]
IC50 (HeLa): 17.6 ± 1.4 µM | IC50 (MDA-MB-231): 24.8 ± 1.9 µM | IC50 (HepG2): 12.9 ± 1 µM | IC50 (MCF-7): 15.6 ± 1.3 µM

melting point: 296 to 298 °C
SMILES: O=C1Nc2ccc(Cl)cc2/C1=N\Nc1ncnc2[nH]cnc12 [Compound 12, (E)-3-(2-(9H-purin-6-yl)hydrazineylidene)-5-chloroindolin-2-one]
IC50 (HeLa): 46.7 ± 2.8 µM | IC50 [1]: 18.1 to 53.5 µM | IC50 (MDA-MB-231): 41.3 ± 2.5 µM | IC50 (HepG2): 26.4 ± 1.8 µM | IC50 (MCF-7): 33 ± 2.3 µM

melting point: > 300 °C
SMILES: O=C1Nc2ccc(F)cc2/C1=N\Nc1ncnc2[nH]cnc12 [Compound 13, (E)-3-(2-(9H-purin-6-yl)hydrazineylidene)-5-fluoroindolin-2-one]
IC50 (HeLa): 51.2 ± 3 µM | IC50 [1]: 18.1 to 53.5 µM | IC50 (MDA-MB-231): 45.2 ± 2.7 µM | IC50 (HepG2): 31.7 ± 2.1 µM | IC50 (MCF-7): 38.8 ± 2.5 µM

melting point: 294 to 296 °C
SMILES: Cc1ccc2c(c1)/C(=N\Nc1ncnc3[nH]cnc13)C(=O)N2 [Compound 14, (E)-3-(2-(9H-purin-6-yl)hydrazineylidene)-5-methylindolin-2-one]
IC50 (HeLa): 43.5 ± 2.7 µM | IC50 [1]: 18.1 to 53.5 µM | IC50 (MDA-MB-231): 32.5 ± 2.2 µM | IC50 (HepG2): 18.1 ± 1.3 µM | IC50 (MCF-7): 27.5 ± 2.1 µM

IC50 (CDK2): 534 nM | IC50 (Her2): 150 nM | IC50 (EGFR): 143 nM | IC50 (VEGFR2): 192 nM
SMILES: COc1ccc2c(c1)/C(=N\Nc1ncnc3[nH]cnc13)C(=O)N2 [Compound 15, (E)-3-(2-(9H-purin-6-yl)hydrazineylidene)-5-methoxyindolin-2-one]
Bcl-2 Expression (Bcl-2; control 10.67 ± 0.83): 4.593 ± 0.22 pg/mL | Bcl-2 protein level decrease (Bcl-2; fold decrease versus control): 2.30 fold | Bcl-2 Fold (Bcl-2; relative to control = 1): 0.43 fold | IC50 (HeLa): 8.93 ± 0.8 µM | Caspase 3 Expression (Caspase 3; control 93.23 ± 15.5): 368.4 ± 20.7 pg/mL | Caspase 3 Fold (Caspase 3; relative to control = 1): 3.95 fold | Apoptosis: Late (HepG2 cells [2]; control 0.19%): 12.58% | Apoptosis: Early (HepG2 cells [2]; control 0.38%): 1.86% | Apoptosis: Necrosis (HepG2 cells [2]; control 1.45%): 7.03% | viability at 9.61 µM (HepG2 cells [2]; Homo sapiens, control 97.98%, read-out: Apoptosis: Viable): 78.5% | IC50 [1]: 8.93 to 14.9 µM | IC50 (MDA-MB-231): 14.9 ± 1.2 µM | accumulation at pre-G1 compared to control cells (HepG2 cells [3]): 10 fold | Cell Cycle Distribution (%) % Pre-G1 (HepG2 cells [3]; control 2.02): 21.47% | Cell Cycle Distribution (%) % G2/M (HepG2 cells [3]; control 17.45): 6.38% | Cell Cycle Distribution (%) % S (HepG2 cells [3]; control 38.16): 42.44% | Cell Cycle Distribution (%) % G0–G1 (HepG2 cells [3]; control 44.39): 51.18% | Caspase 9 Expression (Caspase 9; control 4.52 ± 1.27): 14.07 ± 0.58 pg/mL | Caspase 9 Fold (Caspase 9; relative to control = 1): 3.11 fold | BAX Expression (BAX; control 83.88 ± 23): 279.1 ± 8.15 pg/mL | BAX Fold (BAX; relative to control = 1): 3.38 fold | IC50 (HepG2): 9.61 ± 0.8 µM | IC50 (MCF-7): 10.8 ± 0.9 µM

melting point: > 300 °C
SMILES: O=C1Nc2ccc([N+](=O)[O-])cc2/C1=N\Nc1ncnc2[nH]cnc12 [Compound 16, (E)-3-(2-(9H-purin-6-yl)hydrazineylidene)-5-nitroindolin-2-one]
IC50 (HeLa): 69.5 ± 3.6 µM | IC50 (MDA-MB-231): 67.4 ± 3.2 µM | IC50 (HepG2): 39.7 ± 2.5 µM | IC50 (MCF-7): 58.3 ± 3.2 µM

Source: article PMC10051310, “Antiproliferative Activity, Multikinase Inhibition, Apoptosis- Inducing Effects and Molecular Docking of Novel Isatin–Purine Hybrids” (Medicina, 2023)
